The text below walks through data of US20030118594A1, “STABLE FORMULATIONS OF MHC-PEPTIDE COMPLEXES” (priority 1995, published 2003).

The test system of one data set is HLA-DR2. As to the kind of experiment: Occupancy of MHC molecules with peptide (loading). The conditions noted are these: DR2 and MBP(83-102)Y^83 complexes prepared in the named detergent. The format is binding, human. How it is done: To prepare the DR2-peptide complex, purified DR2 was dialyzed against 100 mM citrate buffer pH 6.0 containing 0.05% DM for 24 hours at 4° C. prior to the addition of MBP(83-102)Y^83 peptide. The reaction mixture was incubated at 37° C. for 96 hours and free peptide was removed by Sephacryl S200 gel filtration.
As noted in the figure, the occupancy of the MHC molecules (i.e., proportion of the molecules complexed with peptide) was 90% in DM, 40% in octylglucoside and 76% in Tween-80).

The next data set concerns T-cells. The experiment in a line: Toxicity of detergents to T-cells. The format is cell-based. How it is done: A number of detergents were studied for their ability to solubilize human HLA-DR2 and MHC-peptide complexes. In addition the complexes prepared in the detergents were assayed for activity. A summary of structural and physical characteristics of various detergents used for solubilization of HLA-DR2 is presented in FIG. 1.

Data set [1] in a line: Aggregation assay by size-exclusion HPLC and SDS-PAGE. Type of data set: physicochemical. The conditions noted are these: DM concentration below 0.05%, FIG. 4, 5. How it is done:
Three non-ionic detergents (DM, OG, and Tween-80) were tested. The experiments were carried out as generally described in U.S. Pat. Nos. 5,130,297, 5,194,425, 5,260,422 and 5,284,935, all of which are incorporated herein by reference. Briefly, HLA-DR2 was purified from EBV-transformed lymphoblastoid cells [GM03107] obtained from the National Institute of General Medical Sciences human genetic mutant cell repository (Corinell Institute of Medical Research, NJ.). A triton X-100 cell lysate was prepared and applied to a L243 coupled sepharose-4B column and the bound DR2 was eluted in phosphate buffer containing 0.05% n-dodecyl β-D-maltoside (DM) detergent at pH 11.3. Fractions were immediately neutralized with 20% monobasic phosphate and the DR2 pool was collected through a DEAE ion exchange column in 20 mM phosphate buffer containing 0.5 M NaCl and 0.05% DM, pH 6.0. The flow through purified protein solution from the DEAE column was neutralized with 10% tribasic sodium phosphate, filtered through a 180 kD membrane and concentrated to 1 mg/ml. The final DR2 preparation was characterized by 13.5% SDS polyacrylamide gel electrophoresis followed by silver staining.
To prepare the DR2-peptide complex, purified DR2 was dialyzed against 100 mM citrate buffer pH 6.0 containing 0.05% DM for 24 hours at 4° C. prior to the addition of MBP(83-102)Y^83 peptide. […]

Data set [2] concerns mouse. The experiment in a line: GLP Toxicology: Acute Range-finding. The conditions noted are these: i.v., 400 ug/kg, bolus. Type of data set: in vivo. How it is done: (§1) Safety and toxicity studies were carried out for the intravenous administration of dodecyl-β-D-maltoside in various animal models.
The test system of data set [3] is mouse. The experiment in a line: GLP Toxicology: Subacute - full histo. The format is in vivo. Conditions: i.v., QD14. As for the experimental part:
as §1

Data set [4] deals with mouse. As to the kind of experiment: Safety Pharmacology: Neuropharm profile. The format is in vivo. Conditions: i.v., bolus. As for the experimental part: as §1
In a further data set the test system is rat. As to the kind of experiment: Safety Pharmacology: Diuretic Assay. The format is in vivo. Conditions: i.v., bolus. As for the experimental part:
as §1

Data set [5] concerns mouse. The experiment in a line: Safety Pharmacology: Barbit Sleep Potent. Type of data set: in vivo. Conditions: i.v., bolus. How it is done: as §1
A further data set relates to dog. As to the kind of experiment: Safety Pharmacology: Cardiovasc Effects. The format is in vivo. The conditions noted are these: i.v. As for the experimental part:
as §1

Another data set has as its system various animal models. The experiment in a line: Safety and toxicity studies, intravenous administration in various animal models. Type of data set: in vivo. The conditions noted are these: i.v. administration at various tested doses, summary of Table 1. How it is done: as §1

Like-named read-outs stand apart in the source and are kept apart here.

As for `CCCCCCCC/C=C\CCCCCCCC(=O)OCCOCC(OCCO)C1OCC(OCCO)C1OCCO` (stereo not shown) [Tween-80], the “occupancy of the MHC molecules (proportion of the molecules complexed with peptide)” value (from here on “occupancy of the MHC molecules”) in the data set with HLA-DR2 is 76%.

As for `C[C@H](CCC(=O)NCCC[N+](C)(C)CCCS(=O)(=O)[O-])[C@H]1CC[C@H]2[C@@H]3[C@H](O)C[C@@H]4C[C@H](O)CC[C@]4(C)[C@H]3C[C@H](O)[C@]12C` [CHAPS], in the data set with T-cells (detergents for solubilization of HLA-DR2), the “toxicity to T-cells” value is “toxic to T-cells”.

As to Pluronic F-127, in the data set with T-cells, the “toxicity to T-cells” value is “toxic to T-cells”.

With `CCCCCCCCCCCCO[C@@H]1O[C@H](CO)[C@@H](O[C@H]2O[C@H](CO)[C@@H](O)[C@H](O)[C@H]2O)[C@H](O)[C@H]1O` [DM, dodecyl β-D maltoside], the “aggregation level of DR2” value in data set [1] is on record as “increased aggregation level of DR2”. Also, the “occupancy of the MHC molecules” value in the data set on HLA-DR2 is 90%. For the same molecule, in the data set with mouse [2], the “Results, Acute Range-finding” value was “poss kindey cortical”. The “Results, Subacute - full histo” value is given as “No Eff @ necr/clin-path” in the data set with mouse [3] (4 ug/kg), “No Effects” in the data set on mouse [3] (40 ug/kg) and “D14 Spleen wt slightly” with mouse [3] (400 ug/kg). The “Results, Neuropharm profile” value in the data set with mouse [4] (10 ug/kg) and in the data set on mouse [4] (100 ug/kg) was “No Effects” each time. Further, the “Results, Diuretic Assay” value in the data set with rat (10 ug/kg) and with rat (100 ug/kg) was “No Effects” each time. The “Results, Barbit Sleep Potent” value in the data set on mouse [5] (10 ug/kg) and in the data set on mouse [5] (100 ug/kg) was “No Effects” throughout. The “Results, Cardiovasc Effects” value was “No Effects” in the data set with dog (10 ug/kg, bolus) and “No Effects” in the data set with dog (up if NOEL to 100 ug/kg). The toxic effects result in the data set on various animal models is given as “no toxic effects”.

As for `CCCCCCCCO[C@@H]1O[C@H](CO)[C@@H](O)[C@H](O)[C@H]1O` [octylglucoside, octyl glucoside], the “occupancy of the MHC molecules” value in the data set with HLA-DR2 was found to be 40%.
